Measured values as given in ChEMBL document CHEMBL4265932, “Advances in diarylpyrimidines and related analogues as HIV-1 nonnucleoside reverse transcriptase inhibitors” (Eur J Med Chem, 2018).
pEC50, pIC50: −log10 of the molar value.

Key:
[1] = Selectivity index, ratio of CC50 for human MT4 cells to EC50 for wild-type HIV1 3B reverse transcriptase infected in human MT4 cells; format: toxicity, cell-based; conditions: read-out: Ratio CC50/EC50
[2] = Selectivity index, ratio of CC50 for human TZM-bl cells to EC50 for wild-type HIV1 infected in human TZM-bl cells; format: toxicity, cell-based; conditions: read-out: Ratio CC50/EC50
[3] = test system: Human immunodeficiency virus 1; test: Antiviral activity against wild-type HIV1 infected in human TZM-bl cells pretreated with cells for 30 mins followed by viral infection and measured after 48 hrs by luciferase reporter gene assay; format: functional, organism-based; conditions: Human immunodeficiency virus 1, TZM-bl
[4] = molecular target: T1, Human immunodeficiency virus type 1 reverse transcriptase (Human immunodeficiency virus 1, UniProt Q72547, K103N/Y181C); test: Inhibition of HIV1 RES056 reverse transcriptase K103N/Y181C double mutant
[5] = molecular target: T2, Human immunodeficiency virus type 1 reverse transcriptase (Human immunodeficiency virus 1, UniProt Q72547); test: Inhibition of wild-type HIV1 3B reverse transcriptase
[6] = molecular target: Human immunodeficiency virus type 1 reverse transcriptase (Human immunodeficiency virus 1, UniProt Q72547, L100I); test: Inhibition of recombinant HIV1 reverse transcriptase L100I mutant
[7] = molecular target: Human immunodeficiency virus type 1 reverse transcriptase (Human immunodeficiency virus 1, UniProt Q72547, Y188L); test: Inhibition of recombinant HIV1 reverse transcriptase Y188L mutant
[8] = molecular target: Human immunodeficiency virus type 1 reverse transcriptase (Human immunodeficiency virus 1, UniProt Q72547, K103N); test: Inhibition of recombinant HIV1 reverse transcriptase K103N mutant
[9] = molecular target: Human immunodeficiency virus type 1 reverse transcriptase (Human immunodeficiency virus 1, UniProt Q72547, Y181C); test: Inhibition of recombinant HIV1 reverse transcriptase Y181C mutant
[10] = molecular target: Human immunodeficiency virus type 1 reverse transcriptase (Human immunodeficiency virus 1, UniProt Q72547, K103N/L100I); test: Inhibition of recombinant HIV1 reverse transcriptase L100I/K103N double mutant
[11] = molecular target: T1, Human immunodeficiency virus type 1 reverse transcriptase; test: Inhibition of recombinant HIV1 reverse transcriptase K103N/Y181C double mutant
[12] = molecular target: T2, Human immunodeficiency virus type 1 reverse transcriptase; test: Inhibition of HIV1 reverse transcriptase

N#Cc1ccc(Nc2nccc(Oc3ccc4cc(C#N)ccc4c3Br)n2)cc1
selectivity ratio [1]: 181000

Cc1cc(/C=C/C#N)cc(C)c1Nc1ccc(F)c(Nc2ccc(C#N)cc2)n1
selectivity ratio [2]: 62500
pEC50 [3]: 8.80

Cc1cc(C#N)cc(C)c1Nc1ncc(F)c(Nc2ccc(C#N)cc2)n1
selectivity ratio [2]: 36000
pEC50 [3]: 8.55

Cc1cc(/C=C/C#N)cc(F)c1Nc1ccc(F)c(Nc2ccc(C#N)cc2)n1
selectivity ratio [2]: > 100000
pEC50 [3]: 9.00

Cc1cc(/C=C/C#N)cc(C)c1Nc1ncc(F)c(Nc2ccc(C#N)cc2)n1
selectivity ratio [2]: > 42000
pEC50 [3]: 9.05

N#Cc1ccc(Nc2nccc(/C(=N\N)c3ccccc3Br)n2)cc1
pEC50 [4]: < 5.04
pEC50 [5]: 8.77

N#Cc1ccc(Nc2nccc(Oc3ccc4ccccc4c3Br)n2)cc1
selectivity ratio [1]: 65600

Cc1cc(C)c(Nc2ccnc(Nc3ccc(C(N)=O)cc3)n2)c(C)c1
pIC50 [6]: < 5.00
pIC50 [7]: < 5.00
pIC50 [8]: < 5.00
pIC50 [9]: < 5.00
pIC50 [5]: 7.20

N#Cc1ccc(Nc2nccc(/C(=N\N)c3ccc4ccccc4c3)n2)cc1
pEC50 [4]: 5.08
pEC50 [5]: 8.08

Cc1cc(C)c(Nc2ccnc(Nc3ccc(Cl)cc3)n2)c(C)c1
pIC50 [6]: 6.70
pIC50 [10]: < 5.00
pIC50 [7]: 5.60
pIC50 [8]: 7.60
pIC50 [9]: 7.10
pIC50 [5]: 8.50

Cc1cc(C)c(Nc2ccnc(Nc3ccc(C#N)cc3)n2)c(C)c1 [DAPIVIRINE]
pIC50 [11]: 7.40
pIC50 [6]: 7.80
pIC50 [10]: < 5.00
pIC50 [7]: 7.40
pIC50 [8]: 8.40
pIC50 [9]: 8.10
pIC50 [5]: 9.00

CC(=O)c1ccc(C)cc1NC(C(N)=O)c1c(Cl)cccc1Cl (stereo not drawn) [LOVIRIDE]
pEC50 [12]: 7.89
